# Experimental data from patent US4353907A, “Amidino hydrazone . C17 H29-35 COOH insect and fire ant bait formulations” (American Cyanamid Co., priority 1981, dated 1982).
# Where “and” joins values, the source holds several entries; their conditions need not be identical. Equal values may be shown once.
# Legend:
# [1] = Determination of Solubility in Soybean Oil (HPLC of oil phase after equilibration); assay type: physicochemical; conditions: for % Salt in Oil Layer / % Amidino Hydrazone in Oil Layer (w/w), Average: 25° C.; for % Salt in Oil Layer: footnote * formula (drawing 4); for % Amidino Hydrazone in Oil Layer (w/w), Average: average of duplicates; for % Amidino Hydrazone in Oil Layer (w/w): individual duplicate, equilibrated at 100° C. 4 hours, cooled to 25° C.
# Procedure: Each salt of example 1 was equilibrated with approximately 3/8 its weight of soybean oil at 100° C. for 4 hours with ultrasonic agitation. The resulting mixtures were centrifuged while hot and allowed to cool to room temperature (25° C.). […] Duplicate samples of the oil phases were analyzed by solution in methylene chloride and quantitation by HPLC.
# [2] = system: Tobacco budworm (Heliothis virescens), egg; experiment: Screening, TBW egg test (tobacco budworm eggs); assay type: in vivo; conditions: 300 ppm
# Source text: Insect: Tobacco budworm (Heliothis virescens), egg
# Test: Screening, TBW egg test.
# (§1) Formulation: 50:50 acetone:water.
# Concentrations: Screening: 300, 100, 10, 1 ppm.
# (§2) Plant Preparation: Cotton plants are selected to give plants with the first true leaf expanded to about 6-7 cm in length.
# Insect Preparation: Eggs are collected on cheesecloth used as the lid for the moth oviposition chamber in the rearing colony. This cloth is cut into 10-20 mm squares containing about 50-100 budworm eggs laid within the past day. Thus, eggs are 6-30 hours old when used in the test.
# Test Procedures: The cotton plant is dipped in the test formulation and agitated for 3 seconds. A square of cheesecloth with eggs is also dipped in the test formulation, placed on the treated leaf and the combination placed in the hood to air dry. When dry, the leaf and egg cloth are removed from the plant, and placed in an "8-ounce Dixie cup (240 ml. 6 cm high, top diameter 9.5 cm. bottom diameter 8 cm)," to which a 5 cm length of damp cotton dental wick had been previously added. A clear plastic lid is placed on the cup.
# Holding Conditions: The cups are held at 27° C. until the eggs hatch, which occurs in about 2 days.
# Observations: Kill of eggs. This may require the use of a low-power microscope to determine if the lack of visible mobile caterpillars is due to lack of egg hatch or due to the newly hatched caterpillars dying on the leaf under and near the cheesecloth. The standard rating system of 0-9 is used to record the results.
# [3] = system: Bean aphid (Aphis fabae), mixed stages; experiment: Screening: bean aphid test; assay type: in vivo; conditions: 100 ppm
# Procedure: Insect: Bean aphid (Aphis fabae), mixed stages.
# Test: Screening: bean aphid test
# as §1
# Plant Preparation: 5 cm pots each containing a nasturtium plant about 5 cm tall are infested with 100 to 400 aphids 2-4 days before the test.
# Insect Preparation: See above.
# Test Procedure: The pot of aphids is sprayed for 2 revolutions of a 4 rpm turntable in the hood, using a #154 DeVilbiss atomizer at 1500 kg/m^2 pressure. The spray tip is held about 15 cm from the plant and the spray directed so as to give complete coverage of the aphid and the plants. The sprayed plants are laid on their sides on white enamel trays measuring 24×34 cm.
# Holding Conditions: Trays of sprayed pots are held at 27° C. for 1 day.
# Observations: Mortality estimates are made and data recorded with the standard […] rating system.
# NOTE: For LD50 determinations, a clean tray 24×34 cm is ruled off into a grid with 3 cm spacing and the live aphids gently brushed off the plant onto the gridded tray. This makes it easier to make an exact count of the number of aphids on the plant. Dead aphids, which fall off the plant onto the tray, are counted where they fall, since they stick to the tray and cannot be brushed onto a gridded tray for counting.
# [4] = system: Southern armyworm (Spodoptera eridania), 3rd instar; experiment: Screening: Southern armyworm larva; assay type: in vivo
# Procedure: Insect: Southern armyworm (Spodoptera eridania). 3rd instar.
# Test: Screening: Southern armyworm larva.
# Formulation: 2:1 acetone:water.
# Plant Preparation: Sieva lima bean plants are selected with primary leaves 7-8 cm long and cut back to one plant per pot.
# Insect Preparation: A 100×10 mm petri dish is prepared by putting a damp filter paper in the bottom and ten 3rd instar larvae are added. These are about 10 mm long.
# Test Procedure: The bean plant is dipped for 3 seconds with agitation in the test formulation and placed in the hood to dry. One leaf is removed from the plant and placed in the petri dish with the caterpillars.
# Holding Conditions: The dish is held at 27° C. The plant with the remaining leaf is held in the greenhouse under high intensity lights.
# Observations: Mortality counts are made after 2 days and recorded using the standard 0-9 rating system.
# [5] = system: Phosphate resistant 2-spotted spider mite (Tetranychus urticae); experiment: Screening: Mite test; assay type: in vivo; conditions: 300 ppm
# Procedure: Mite: Phosphate resistant 2-spotted spider mite
# (Tetranychus urticae), adults, eggs, nymphs.
# Test: Screening: Mite test.
# (§3) Formulation: 50:50 acetone:water
# Plant Preparation: Sieva lima bean plants with primary leaves 7-8 cm long are selected and cut back to one plant per pot. A small piece is cut off of a leaf taken from the main mite colony and placed on each leaf of the test plants. This is done about 1-3 hours before use to allow the mites to move over to the test plant and lay eggs before treatment. The size of the piece cut is varied to try to obtain about 100 mites per leaf.
# Mite Preparation: See above.
# Test Procedure: The piece of leaf used to transfer mites is removed and discarded. The mite-infested plant is dipped in the test formulation for 3 seconds with agitation, and the plant set in the hood to dry.
# Holding Conditions: The plants are held for 2 days at 27° C. for the first observation, and the second leaf is kept on the plant for another 5 days for the final observation.
# Observations: After 2 days one leaf is removed and examined under a 10×microscope to determine the mortality of the adult mites. The second leaf is examined similarly 7 days after treatment to observe the kill of eggs and of newly hatched nymphs giving a measure of ovicidal and residual action, respectively. Any evidence of phytotoxicity from the test treatment is noted. The standard rating system of 0-9 is used to record the mite data.
# [6] = system: Tobacco budworm (Heliothis vireacens), 1st instar; experiment: Screening, TBW 1st instar test; assay type: in vivo
# Procedure: Insect: Tobacco budworm (Heliothis vireacens), 1st instar.
# Test: Screening, TBW 1st instar test.
# as §3
# Concentrations: Screening: 300, 100, 10, 1 ppm
# as §2
# Insect Preparation: Cheesecloth on which moths have oviposited is daily cut into 10-20 mm squares containing 50-100 eggs each. These squares are held at 21° C. for 2 days and 24° C. for another day in order to coordinate hatch with testing times. Thus, the larvae are 0-2 hours old at time of use.
# Test Procedure: The cotton plant is dipped in the test formulation, agitated for 3 seconds, and placed in the hood to air dry. When dry, the leaf is removed from the plant and placed in an "8-ounce Dixie cup (240 ml, 6 cm high, top diameter 9.5 cm, bottom diameter (8 cm)" to which a 5 cm length of damp cotton dental wick had been previously added. A square of cheesecloth with newly hatched budworm larvae on it is placed on the treated leaf and a clear plastic lid is put on the cup.
# Holding Conditions: The cups are held at 27° C. for 2 days.
# Observations: Kill of larvae. This may require the use of a low-power microscope to determine if the worms are dead or just not feeding. Observation of amount of feeding is also recorded. Where there is only trace to light feeding, the cup is held an extra day and results recorded at that time. The standard rating system of 0-9 is used.
# [7] = Solubility of the toxicant in fatty acids and edible fats and oils; assay type: physicochemical
# [8] = listed as Amidino Hydrazone Salt Of Linoleic Acid
# [9] = listed as Amidino Hydrazone Salt Of Linolenic Acid
# [10] = listed as Amidino Hydrazone Salt Of Oleic Acid
# [11] = listed as Amidino Hydrazone Salt Of Stearic Acid
smiles,measurement,setting,value
CC1(C)CN=C(NN=C(C=Cc2ccc(C(F)(F)F)cc2)C=Cc2ccc(C(F)(F)F)cc2)NC1 [Amidino Hydrazone Linoleate],% Salt in Oil Layer,[1]; [8],47%
same,"% Amidino Hydrazone in Oil Layer (w/w), Average",[1]; [8],30.3 % (w/w)
same,% Amidino Hydrazone in Oil Layer (w/w),[1]; [8],30.3 % (w/w) and 30.4 % (w/w)
same,Budworm Eggs control rating,[2],0 (0 control)
same,Aphids control rating,[3],0 (0 control)
same,3rd Instar Armyworms control rating,[4]; 10 ppm,9 (100% control)
same,3rd Instar Armyworms control rating,[4]; 100 ppm,9 (100% control)
same,3rd Instar Armyworms control rating,[4]; 1000 ppm,9 (100% control)
same,P-res. Mites control rating,[5],0 (0 control)
same,1st Instar Tobacco Budworms control rating,[6]; 10 ppm,0 (0 control)
same,1st Instar Tobacco Budworms control rating,[6]; 100 ppm,7 (80% control)
same,1st Instar Tobacco Budworms control rating,[6]; 300 ppm,9 (100% control)
CC1(C)CN=C(NN=C(C=Cc2ccc(C(F)(F)F)cc2)C=Cc2ccc(C(F)(F)F)cc2)NC1 [Amidino Hydrazone Linolenate],% Salt in Oil Layer,[1]; [9],55%
same,"% Amidino Hydrazone in Oil Layer (w/w), Average",[1]; [9],35.4 % (w/w)
same,% Amidino Hydrazone in Oil Layer (w/w),[1]; [9],35.9 % (w/w) and 34.8 % (w/w)
same,Budworm Eggs control rating,[2],0 (0 control)
same,Aphids control rating,[3]; listed as Amidino Hydrazine Linolenate,5 (60% control)
same,3rd Instar Armyworms control rating,"[4]; 10 ppm, listed as Amidino Hydrazine Linolenate",9 (100% control)
same,3rd Instar Armyworms control rating,[4]; 100 ppm,9 (100% control)
same,3rd Instar Armyworms control rating,[4]; 1000 ppm,9 (100% control)
same,P-res. Mites control rating,[5],0 (0 control)
same,1st Instar Tobacco Budworms control rating,[6]; 10 ppm,0 (0 control)
same,1st Instar Tobacco Budworms control rating,"[6]; 100 ppm, listed as Amidino Hydrazine Linolenate",9 (100% control)
same,1st Instar Tobacco Budworms control rating,"[6]; 300 ppm, listed as Amidino Hydrazine Linolenate",9 (100% control)
CC1(C)CN=C(NN=C(C=Cc2ccc(C(F)(F)F)cc2)C=Cc2ccc(C(F)(F)F)cc2)NC1 [Amidino Hydrazone Oleate],% Salt in Oil Layer,[1]; [10],44%
same,"% Amidino Hydrazone in Oil Layer (w/w), Average",[1]; [10],28.0 % (w/w)
same,% Amidino Hydrazone in Oil Layer (w/w),[1]; [10],27.8 % (w/w) and 28.1 % (w/w)
same,Budworm Eggs control rating,[2],0 (0 control)
same,Aphids control rating,[3],0 (0 control)
same,3rd Instar Armyworms control rating,[4]; 10 ppm,6 (70% control)
same,3rd Instar Armyworms control rating,[4]; 100 ppm,9 (100% control)
same,3rd Instar Armyworms control rating,[4]; 1000 ppm,9 (100% control)
same,P-res. Mites control rating,[5],0 (0 control)
same,1st Instar Tobacco Budworms control rating,[6]; 10 ppm,0 (0 control)
same,1st Instar Tobacco Budworms control rating,[6]; 100 ppm,0 (0 control)
same,1st Instar Tobacco Budworms control rating,[6]; 300 ppm,7 (80% control)
"CC1(C)CN=C(NN=C(C=Cc2ccc(C(F)(F)F)cc2)C=Cc2ccc(C(F)(F)F)cc2)NC1 [Amidino Hydrazone Stearate, 1,4-pentadien-3-one, 1,5-bis(alpha,alpha,alpha-trifluoro-p-tolyl)-(1,4,5,6-tetrahydro-5,5-dimethyl-2-pyrimidinyl)hydrazone stearate]",% Salt in Oil Layer,[1]; [11],47%
same,"% Amidino Hydrazone in Oil Layer (w/w), Average",[1]; [11],30.1 % (w/w)
same,% Amidino Hydrazone in Oil Layer (w/w),[1]; [11],29.8 % (w/w) and 30.4 % (w/w)
same,Budworm Eggs control rating,[2],0 (0 control)
same,Aphids control rating,[3],8 (90% control)
same,3rd Instar Armyworms control rating,[4]; 10 ppm,9 (100% control)
same,3rd Instar Armyworms control rating,[4]; 100 ppm,9 (100% control)
same,3rd Instar Armyworms control rating,[4]; 1000 ppm,9 (100% control)
same,P-res. Mites control rating,[5],0 (0 control)
same,1st Instar Tobacco Budworms control rating,[6]; 10 ppm,0 (0 control)
same,1st Instar Tobacco Budworms control rating,[6]; 100 ppm,9 (100% control)
same,1st Instar Tobacco Budworms control rating,[6]; 300 ppm,9 (100% control)
"CC1(C)CN=C(NN=C(C=Cc2ccc(C(F)(F)F)cc2)C=Cc2ccc(C(F)(F)F)cc2)NC1 [Amidino Hydrazone, 1,5-bis(alpha,alpha,alpha-trifluoro-p-tolyl)-1,4-pentadien-3-one (1,4,5,6-tetrahydro-5,5-dimethyl-2-pyrimidinyl)hydrazone]",solubility in edible fats and oils attractive to fire ants,[7]; edible fats and oils as solvents for the toxicant,not very good solvents
same,solubility in fatty acids,"[7]; oleic, linoleic, linolenic, stearic acid and mixtures",readily soluble
